The text below walks through data of patent publication US8183252B2, “Heterocyclic aspartyl protease inhibitors” (Schering Corporation, priority 2007, dated 2012).

The structures appear in SMILES notation. Read-outs that look alike come from different tables or passages of the source.

What is called Ki is a dissociation constant, usually derived from enzyme kinetics or from competition with a known ligand.

The assay deals with T1, human BACE1 (sproBACE1) (Homo sapiens, UniProt P56817).
T1 construct: sBACE1, corresponding to amino acids 1-454; made in house; host or cells: Sf9 insect cells (baculovirus), secreted into the medium
T1 sequence (P56817 22-454): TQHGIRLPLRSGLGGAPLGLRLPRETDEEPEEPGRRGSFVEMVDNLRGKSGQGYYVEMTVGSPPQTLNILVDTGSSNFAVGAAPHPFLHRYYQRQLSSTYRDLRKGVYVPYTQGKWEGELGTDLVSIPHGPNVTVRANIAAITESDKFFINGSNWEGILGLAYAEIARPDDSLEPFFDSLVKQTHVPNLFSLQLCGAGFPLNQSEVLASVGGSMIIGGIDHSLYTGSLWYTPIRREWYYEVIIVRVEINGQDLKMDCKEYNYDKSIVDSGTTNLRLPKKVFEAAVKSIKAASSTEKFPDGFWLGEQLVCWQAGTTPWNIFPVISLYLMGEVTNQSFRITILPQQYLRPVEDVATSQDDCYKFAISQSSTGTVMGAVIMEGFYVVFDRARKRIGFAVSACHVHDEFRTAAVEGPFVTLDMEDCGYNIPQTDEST
Briefly: BACE-1 Peptide Hydrolysis Assay (HTRF). In kind it is biochemical. The method in brief: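 Secreted sBACE1-myc/His from baculovirus-infected sf9 cells, purified on Q-sepharose then Ni-NTA. Substrate-initiated reactions ran 3 hr at 30° C., then were stopped with KF buffer (pH 8.0) containing SA-XL665 for HTRF read-out. EC50 was fitted by sigmoidal dose-response to percent change in ratio.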
Background: In TR-FRET formats the signal depends on donor and acceptor labels being close together.

Regarding `CCCCS(=O)(=O)Nc1cccc(CN2C(=N)NC(c3ccccc3)(c3ccccc3)C2=O)c1`, the Ki (read-out: BACE-1 Ki) is below 5 µM.

Turning to `COCC1CCCN1C(=O)c1cncc(CN2C(=N)NC(c3cccc(Br)c3)(C3CC3)C2=O)c1` (stereo not shown), the Ki (read-out: BACE-1 Ki) is below 5 µM.

As for `CN1C(=N)NC(c2ccccc2)(c2cc(-c3cncnc3)cs2)C1=O` (stereo not shown), under “read-out: BACE-1 Ki”, the Ki was below 5 µM.

With `CN1C(=N)N[C@](CCc2ccccc2)(C[C@H]2CCC[C@H](Nc3cccnc3)C2)C1=O`, the Ki (read-out: BACE-1 Ki) is below 5 µM.

On to `Cn1nccc1CN1C(=N)NC(c2ccccc2)(c2ccccc2)C1=O`, for which the Ki (read-out: BACE-1 Ki) was below 5 µM.

For `N=C1NC(c2ccccc2)(c2ccccc2)C(=O)N1Cc1cccnc1`, the Ki (read-out: BACE-1 Ki) was below 5 µM.

With `CN1C(=N)N[C@](C)(c2cc(-c3cc(Cl)cc(C#N)c3)cs2)CC1=O`, the Ki (read-out: BACE-1 Ki) is below 5 µM.

Turning to `CN1C(=N)N[C@](C)(c2ncc(-c3cc(F)cc(C#N)c3)s2)CC1=O`, under “read-out: BACE-1 Ki”, the Ki was below 5 µM.

For `CN1C(=N)NC(c2csc(-c3cccc(C#N)c3)c2)(C2CC2)C1=O` (stereo not shown), for the setting “read-out: BACE-1 Ki”, the Ki was below 5 µM.

As for `Cc1ccc(N2CCC([C@H]3C(=O)N(C)C(=N)N[C@]3(C)c3cc(-c4cccc(C#N)c4)cs3)CC2)cc1`, the Ki (read-out: BACE-1 Ki) is below 5 µM.

`Cc1c(-c2cccc(C#N)c2)csc1[C@]1(C)CC(=O)N(C)C(=N)N1`: the Ki (read-out: BACE-1 Ki) is below 5 µM.

In the case of `Cc1cc([C@]2(C)CC(=O)N(C)C(=N)N2)sc1-c1cccc(C#N)c1`, where the note is “read-out: BACE-1 Ki”, the Ki was below 5 µM.

As to `COc1cc(C#N)cc(-c2cc([C@@]3(C)NC(=N)N(C)C(=O)[C@@H]3C)sc2C)c1`, the Ki (read-out: BACE-1 Ki) is below 5 µM.

With `CC1(c2cccc(-c3cccc(Cl)c3)c2)NC(=N)N(CC2CCN(S(=O)(=O)c3ccccc3)C2)C1=O` (stereo not shown), where the note is “read-out: BACE-1 Ki”, the Ki is below 5 µM.

With `CN1C(=N)N[C@](C)(c2scc(C#N)c2F)CC1=O`, the Ki (read-out: BACE-1 Ki) is below 5 µM.

Take `N=C1NC(c2ccccc2)(c2ccccc2)C(=O)N1Cc1cccc(C(=O)N2CCOCC2)c1`: the Ki (read-out: BACE-1 Ki) was below 5 µM.

For the compound `CN1C(=N)NC(c2cc(-c3cncc(Cl)c3)cs2)(C2CC2)C1=O` (stereo not shown), the Ki (read-out: BACE-1 Ki) is below 5 µM.

For the compound `CN1C(=N)N[C@](C)(c2cc(-c3ccc(F)c(C#N)c3)c(F)s2)[C@@H](C2CC2)C1=O`, the Ki (read-out: BACE-1 Ki) is below 5 µM.

With `C[C@H]1C(=O)N(C)C(=N)N[C@]1(C)c1cc(-c2cc(C#N)cc(C#N)c2)cs1`, the Ki (read-out: BACE-1 Ki) is below 5 µM.

For the compound `CN1C(=N)N[C@](CCC2CCCCC2)(C[C@H]2CCC[C@@H](NCCc3ccccc3)C2)C1=O`, the Ki (read-out: BACE-1 Ki) was below 5 µM.

For the compound `CN1C(=N)N[C@](CCc2ccccc2)(C[C@H]2CCC[C@@H](NC3CCCCC3)C2)C1=O`, the Ki (read-out: BACE-1 Ki) is below 5 µM.

On to `CN1C(=N)N[C@@](C[C@H]2CCC[C@@H](Nc3ccc4ccccc4n3)C2)(C2CC2)C1=O`, for which the Ki (read-out: BACE-1 Ki) is below 5 µM.

For the compound `Cc1nn(C)c2sc([C@]3(C)CC(=O)N(C)C(=N)N3)cc12`, the Ki (read-out: BACE-1 Ki) is below 5 µM.

On to `CN1C(=N)N[C@](C)(c2ccc(F)cc2F)[C@@H](C2CCN(c3ccc(F)cc3)CC2)C1=O`, for which, for the setting “read-out: BACE-1 Ki”, the Ki is below 5 µM.

Regarding `CN1C(=N)N[C@](C)(c2ccc3c(Br)n[nH]c3c2)CC1=O`, where the note is “read-out: BACE-1 Ki”, the Ki was below 5 µM.

With `CN1C(=N)N[C@](C)(c2cc(-c3cccc(Br)c3)nn2C)C(C)(C)C1=O`, the Ki (read-out: BACE-1 Ki) was below 5 µM.

Turning to `CN1C(=N)N[C@](C)(c2cc(-c3cccc(Br)c3)ns2)CC1=O`, the Ki (read-out: BACE-1 Ki) is below 5 µM.

Turning to `CN1C(=N)N[C@](C)(c2cc(-c3cccc(Cl)c3)ccn2)CC1=O`, the Ki (read-out: BACE-1 Ki) was below 5 µM.

`CCOc1cc(F)cc(-c2csc([C@]3(C)CC(=O)N(C)C(=N)N3)c2)c1`: the Ki (read-out: BACE-1 Ki) is below 5 µM.

Take `N=C1NC(c2ccccc2)(c2ccccc2)C(=O)N1Cc1cccc(NC(=O)C2CCCC2)c1`: the inhibition constant Ki (read-out: BACE-1 Ki) is below 5 µM.

As to `CN1C(=N)N[C@](CCc2ccccc2)(C[C@H]2CCC[C@@H](NC(=O)c3ccncc3)C2)C1=O`, the Ki (read-out: BACE-1 Ki) was below 5 µM.

Turning to `CN1C(=N)N[C@](CCC2CCCCC2)(C[C@H]2CCC[C@@H](NS(=O)(=O)c3ccccc3)C2)C1=O`, the Ki (read-out: BACE-1 Ki) is below 5 µM.

For the compound `N=C1NC(c2ccccc2)(c2ccccc2)C(=O)N1CC1CCN(C(=O)CCN)CC1`, the inhibitory constant (Ki) (read-out: BACE-1 Ki) is below 5 µM.

`N=C1NC(c2ccccc2)(c2ccccc2)C(=O)N1C[C@H]1CCCN(S(=O)(=O)C2CC2)C1`: the Ki (read-out: BACE-1 Ki) was below 5 µM.

As to `CN1C(=N)N[C@](C)(c2cc(-c3cccnc3)cs2)CC1=O`, for the setting “read-out: BACE-1 Ki”, the Ki is below 5 µM.

Turning to `CN1C(=N)N[C@](C)(c2nc(-c3cccnc3)cs2)CC1=O`, where the note is “read-out: BACE-1 Ki”, the Ki is below 5 µM.

`CN1C(=N)N[C@](C)(c2cc(-c3cccc(OC(F)(F)F)c3)ccn2)CC1=O`: the Ki (read-out: BACE-1 Ki) is below 5 µM.

On to `CN1C(=N)NC(C)(c2cc(-c3cccc(C#N)c3)cs2)C(CC#N)C1=O` (mixture of isomers), for which, under “read-out: BACE-1 Ki”, the Ki was below 5 µM.

In turn, `CCn1nccc1Nc1cccc(C2(C)NC(=N)N(CC3CCN(C(C)=O)CC3)C2=O)c1` (racemic) displayed a Ki below 5 µM.

With `CN1C(=N)NC(c2ccccc2)(c2cccc(NCc3ccccc3)c2)C1=O` (racemic), the Ki (read-out: BACE-1 Ki) was below 5 µM.

As to `Cc1cncc(-c2cccc(C3(C)NC(=N)N(C)C3=O)c2)c1` (racemic), the Ki (read-out: BACE-1 Ki) was below 5 µM.

With `CC1(c2cccc(-c3cccnc3)c2)NC(=N)N(Cc2cccc(N3CCCCS3(=O)=O)c2)C1=O` (racemic), under “read-out: BACE-1 Ki”, the Ki is below 5 µM.

Turning to `COc1cccc(-c2cccc(C3(C)NC(=N)N(Cc4cccc(N5CCCCS5(=O)=O)c4)C3=O)c2)c1` (racemic), the Ki (read-out: BACE-1 Ki) was below 5 µM.

Take `CN1C(=N)NC(c2ccccc2)(c2cccc(NS(=O)(=O)c3cccc(C#N)c3)c2)C1=O` (racemic): the inhibitory constant (Ki) (read-out: BACE-1 Ki) was below 5 µM.

`CS(=O)(=O)N1CCCC(CCN2C(=N)NC(c3ccccc3)(c3ccccc3)C2=O)C1` (racemic) registered a Ki below 5 µM.

Turning to `CCCN(CCC)C(=O)c1cccc(CN2C(=N)NC(C)(c3cccc(Br)c3)C2=O)c1` (racemic), where the note is “read-out: BACE-1 Ki”, the inhibitory constant (Ki) is below 5 µM.

For `CN1C(=N)NC(C)(c2cccc(-c3cncc(C#N)c3)c2)C1=O` (racemic), the Ki (read-out: BACE-1 Ki) was below 5 µM.

Consider `CN1C(=N)NC(c2ccccc2)(c2cccc(-c3nccnc3Cl)c2)C1=O` (racemic), for which the Ki (read-out: BACE-1 Ki) is below 5 µM.

As for `CN1C(=N)NC(c2ccccc2)(c2cccc(-c3cc(Br)cc(OC(F)(F)F)c3)c2)C1=O` (racemic), under “read-out: BACE-1 Ki”, the Ki is below 5 µM.

With `CN1C(=N)NC(C)(c2ccc(F)c(-c3cccnc3)c2)C1=O` (racemic), the Ki (read-out: BACE-1 Ki) was below 5 µM.

Take `COc1cccc(-c2cc(F)cc(C3(c4ccccc4)NC(=N)N(C)C3=O)c2)c1` (racemic): the Ki (read-out: BACE-1 Ki) was below 5 µM.

Take `CCN(CCc1cccc(C2(c3ccccc3)NC(=N)N(C)C2=O)c1)C(C)=O` (racemic): for the setting “read-out: BACE-1 Ki”, the Ki was below 5 µM.

As for `CCN(CCc1cccc(C2(c3ccccc3)NC(=N)N(C)C2=O)c1)S(C)(=O)=O` (racemic), the Ki (read-out: BACE-1 Ki) is below 5 µM.

As to `CN1C(=N)NC(c2ccccc2)(c2cccc(NC(=O)CC3CC3)c2)C1=O` (racemic), the Ki (read-out: BACE-1 Ki) was below 5 µM.

For `CN1C(=N)NC(c2ccccc2)(c2cccc(NS(C)(=O)=O)c2)C1=O` (racemic), the Ki (read-out: BACE-1 Ki) is below 5 µM.

Regarding `CN1C(=N)NC(c2ccccc2)(c2cccc(NS(=O)(=O)c3cccs3)c2)C1=O` (racemic), the Ki (read-out: BACE-1 Ki) is below 5 µM.

`CN1C(=N)NC(c2ccccc2)(c2cccc(NS(=O)(=O)c3ccccc3)c2)C1=O` (racemic): the Ki (read-out: BACE-1 Ki) is below 5 µM.

Turning to `CN1C(=N)NC(c2ccccc2)(c2cccc(NC(=O)c3ccccc3)c2)C1=O` (racemic), the Ki (read-out: BACE-1 Ki) was below 5 µM.

Turning to `CN1C(=N)NC(c2ccccc2)(c2cccc(NC(=O)c3ccoc3)c2)C1=O` (racemic), the Ki (read-out: BACE-1 Ki) was below 5 µM.

For the compound `CN1C(=N)NC(c2ccccc2)(c2cccc(-c3ccoc3)c2)C1=O` (racemic) [5-[3-(3-FURANYL)PHENYL]-2-IMINO-3-METHYL-5-PHENYL-4-IMIDAZOLIDINONE (RACEMIC), 5-[3-(3-FURANYL)PHENYL]-2-IMINO-3-METHYL-5-PHENYL-4-IMIDAZOLIDINONE], the Ki (read-out: BACE-1 Ki) was below 5 µM.

In the case of `COC1C(=O)N(C)C(=N)NC1(C)c1cc(-c2ccc(F)c(C#N)c2)cs1` (single isomer, unassigned), where the note is “read-out: BACE-1 Ki”, the Ki was below 5 µM.

With `CN1C(=N)NC(C)(c2cc(-c3cccc(C#N)c3)cs2)C(n2cccn2)C1=O` (single isomer, unassigned), the Ki (read-out: BACE-1 Ki) is below 5 µM.

As to `CCCCS(=O)(=O)Nc1ccc(CN2C(=N)NC(c3ccccc3)(c3ccccc3)C2=O)cc1` [1-butanesulfonamide, N-[4-[(2-imino-5-oxo-4,4-diphenyl-1-imidazolidinyl)methyl]phenyl]-], under “read-out: BACE-1 Ki”, the Ki was below 5 µM.

Consider `CC(C)S(=O)(=O)Nc1ccc(CN2C(=N)NC(c3ccccc3)(c3ccccc3)C2=O)cc1` [2-propanesulfonamide, N-[4-[(2-imino-5-oxo-4,4-diphenyl-1-imidazolidinyl)methyl]phenyl]-], for which the Ki (read-out: BACE-1 Ki) was below 5 µM.

Take `CN1C(=N)NC(c2ccccc2)(c2cc(-c3cccc(C#N)c3)cs2)C1=O` (stereo not shown) [3-[5-(2-IMINO-1-METHYL-5-OXO-4-PHENYL-4-IMIDAZOLIDINYL)-3-THIENYL]BENZONITRILE]: the Ki (read-out: BACE-1 Ki) is below 5 µM.

`N=C1NC(c2cccc(-c3cccc(Cl)c3)c2)(C2CC2)C(=O)N1C1CCC1` (stereo not shown) [4-imidazolidinone, 5-(3′-chloro[1,1′-biphenyl]-3-yl)-3-cyclobutyl-5-cyclopropyl-2-imino-]: the Ki (read-out: BACE-1 Ki) was below 5 µM.

As for `N=C1NC(c2cccc(-c3cccc(Cl)c3)c2)(C2CC2)C(=O)N1C1CCCC1` (stereo not shown) [4-imidazolidinone, 5-(3′-chloro[1,1′-biphenyl]-3-yl)-3-cyclopentyl-5-cyclopropyl-2-imino-], the Ki (read-out: BACE-1 Ki) was below 5 µM.

In the case of `CC(C)N1C(=N)NC(c2cccc(-c3cccc(Cl)c3)c2)(C2CC2)C1=O` (stereo not shown) [4-imidazolidinone, 5-(3′-chloro[1,1′-biphenyl]-3-yl)-5-cyclopropyl-2-imino-3-(1-methylethyl)-], the Ki (read-out: BACE-1 Ki) was below 5 µM.

For `CCC(C)N1C(=N)NC(c2cccc(-c3cccc(Cl)c3)c2)(C2CC2)C1=O` (stereo not shown) [4-imidazolidinone, 5-(3′-chloro[1,1′-biphenyl]-3-yl)-5-cyclopropyl-2-imino-3-(1-methylpropyl)-], the Ki (read-out: BACE-1 Ki) is below 5 µM.

As for `N=C1NC(c2cccc(-c3cccc(Cl)c3)c2)(C2CC2)C(=O)N1CC(F)(F)F` (stereo not shown) [4-imidazolidinone, 5-(3′-chloro[1,1′-biphenyl]-3-yl)-5-cyclopropyl-2-imino-3-(2,2,2-trifluoroethyl)-], the Ki (read-out: BACE-1 Ki) was below 5 µM.
